Assay results as given in patent publication US6262106A, “Adamantanecarboximidamide derivatives and their use as NMDA antagonists” (priority 1998, dated 2001).
Counter-ions that a name gives are not always drawn.

Experiments:
[1] = known NMDA antagonists, administration; cited from earlier work
[2] = tested on: PCP site of the NMDA receptor (cortical NMDA receptors); assay: NMDA receptor binding, [3H]-MK-801 displacement at PCP site, rat cortical membranes; conditions: for Ratio: (IC50 Cortex / IC50 Cerebellum); for IC50: rat cortex membranes, [3H]-MK-801 5 nM, 10 μM glutamate, 10 μM glycine, 120 min, room temperature
Source text: (§1) The NMDA receptor contains several distinct binding domains that can regulate opening of the cationic channel. The phencyclidine (PCP) site of the NMDA receptor can be radiolabelled with [^3 H]-(+)-5-methyl-10,11-dihydro-5H-dibenzo[a,d]cyclohepten-5,10-imine hydrogen maleate, [^3 H-MK-801]. The following describes the procedure for determining the affinity of compounds for the PCP site in rat cortical or cerebellar membranes.
(§2) Frozen rat cortex or cerebellum, homogenized in 10 volumes of ice-cold 0.32-M. sucrose is centrifuged at 1,000 g for 12 min and the supernatant stored on ice whilst the pellet is resuspended, rehomogenized and recentrifuged twice more. The three final supernatants are pooled and centrifuged at 30,000 g for 40 min at 4° C. to yield P2 pellets. These are resuspended in ice-cold distilled water, and centrifuged at 30,000 g for 50 min at 4° C. Following three further washes in distilled water, the P2 pellets are stored at -20° C. for at least 18 h. On the day of the assay, membrane pellets are thawed at room temperature, resuspended in ice-cold distilled water and centrifuged at 30,000 g for 20 min. The pellets are resuspended in 50-mM tris-HCl (pH:7.4) and recentrifuged twice more before being resuspended in tris-HCl for immediate use in the assay. Binding assays are performed at equilibrium in a total volume of 200 μL, containing [^3 H]-MK-801 (5-nM final conc.), 10-μM glutamate, 10-μM glycine, 160 μL of membrane preparation and additional drugs where appropriate. Non-specific binding is determined using MK-801 (10-μM). The assay is incubated for 120 min at room temperature. The incubation is terminated by rapid filtration through Whatman GF/B filters (pre-soaked in 0.1% PEI solution). The assay tubes and filters are washed five times with 1 mL of ice-cold assay buffer. The filters are placed in poly-Q mini vials with approximately 5 mL of scintillation fluid. The vials are then shaken and left for at least 8 h before being counted on a liquid scintillation counter. To determine the free ligand concentration 3 aliquots (20 μL) of the [^3 H]-MK-801 working solution are also counted. Concentration response data for drugs is analysed using a 4 parameter equation fitted by non-linear regression. This yields the half maximally effective drug concentration (IC50) and Hill coefficient.

[3] = molecular target: PCP site of the NMDA receptor (cerebellar NMDA receptors); assay: NMDA receptor binding, [3H]-MK-801 displacement at PCP site, rat cerebellar membranes; conditions: rat cerebellum membranes; [3H]-MK-801 5 nM; 10 μM glutamate, 10 μM glycine; 120 min, room temperature
Source text: as §1, §2

In the case of `c1ccc(C2(N3CCCCC3)CCCCC2)cc1` [PCP, phencyclidine], the side effects [1] is listed as “perceptual and cognitive disturbances of a kind that resemble naturally-occurring psychotic states”.

In the case of `C[C@]12N[C@H](Cc3ccccc31)c1ccccc12` [Dizocilpine], the side effects [1] is given as “perceptual and cognitive disturbances of a kind that resemble naturally-occurring psychotic states”.

In the case of `Cc1ccccc1C1(C(=N)N)C2CC3CC(C2)CC1C3.Cl` (stereo not shown) [Example 5, 2-(2-Methylphenyl)-2-adamantanecarboximidamide hydrochloride], the Ratio [2] is reported as 1.7, the IC50 [2] is reported as 53 µM and the IC50 [3] is reported as 31 µM.

With `N=C(N)C1(c2ccc(Cl)cc2)C2CC3CC(C2)CC1C3` (stereo not shown) [Example 7, 2-(4-Chlorophenyl)-2-adamantanecarboximidamide hydrochloride] the Ratio [2] was 1.7, the IC50 [2] was 59 µM and the IC50 [3] was 34 µM.

For `CCc1cccc(N(C)C(N)=Nc2cccc3ccccc23)c1` [Cerestat], the side effects [1] is listed as “perceptual and cognitive disturbances of a kind that resemble naturally-occurring psychotic states”.

Compound `Cc1ccc(C2(C(=N)N)C3CC4CC(C3)CC2C4)cc1` (stereo not shown) [Example 4, 2-(4-Methylphenyl)-2-adamantanecarboximidamide hydrochloride] has a Ratio [2] of 1.9, an IC50 [2] of 105 µM and an IC50 [3] of 56 µM.

For `N=C(N)C1(c2ccc(F)cc2)C2CC3CC(C2)CC1C3` (stereo not shown) [Example 6, 2-(4-Fluorophenyl)-2-adamantanecarboximidamide hydrochloride], the Ratio [2] was 1.8, the IC50 [2] was 44 µM and the IC50 [3] was 25 µM.

In the case of `COc1ccc(C2(C(=N)N)C3CC4CC(C3)CC2C4)cc1` (stereo not shown) [Example 8, 2-(4-Methoxyphenyl)-2-adamantanecarboximidamide hydrochloride], the Ratio [2] is reported as 2.0, the IC50 [2] is reported as 45 µM and the IC50 [3] is reported as 22 µM.

For `CNC1(c2ccccc2Cl)CCCCC1=O` (stereo not shown) [Ketamine], the side effects [1] is listed as “perceptual and cognitive disturbances of a kind that resemble naturally-occurring psychotic states”.
